Our source for the T/C values is PubChem BioAssay AID220 (DTP/NCI, 2004).

Several values for one entry are separate records, joined by “and”; a condition that tells them apart may be missing. Identical values can stand only once. Results filed as inconclusive are left out.

This assay has as its system CD8F1 mice, subcutaneous mammary adenocarcinoma, T/C%. In words: NCI In Vivo Anticancer Drug Screen. Data for tumor model Mammary Adenocarcinoma CD8F1 (subcutaneous) in CD8F1. Conditions: higher = larger tumour. In outline: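 Mice carrying transplanted tumors received test compound, and survival or tumor size was recorded. Each value is the treated-group measurement divided by the corresponding measurement in vehicle-dosed controls.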

[1] abbreviates: endpoint: median tumor weight change, dose: 62.5 mg/kg/injection, schedule: Q01DX001 (ip), vehicle: saline with Tween-80.
The mark [2] stands for this setting: endpoint: median tumor weight change, dose: 125.0 mg/kg/injection, schedule: Q01DX001 (ip), vehicle: saline with Tween-80.
Where [3] appears, read: endpoint: median tumor weight change, dose: 250.0 mg/kg/injection, schedule: Q01DX001 (ip), vehicle: saline with Tween-80.
The mark [4] stands for this setting: endpoint: median tumor weight change, dose: 31.25 mg/kg/injection, schedule: Q01DX001 (ip), vehicle: saline with Tween-80.
Setting [5] is: endpoint: median tumor weight change, dose: 31.25 mg/kg/injection, schedule: Q01DX001 (ip), vehicle: saline.
The mark [6] stands for this setting: endpoint: median tumor weight change, dose: 62.5 mg/kg/injection, schedule: Q01DX001 (ip), vehicle: saline.

Take `ClCc1ccc2ccccc2n1`: the T/C was 69 % of control under setting [1], 54 % of control under setting [2] and 76 % of control under setting [3].
On to `CC(=O)OC1(C)CC(C)C(=O)C(C(O)CC2CC(=O)NC(=O)C2)C1` (configuration not stated), for which the T/C is, setting by setting: (endpoint: median tumor weight (est.), dose: 94.0 micrograms/kg/injection, schedule: Q07DX005 (ip), vehicle: saline) 57 % of control; (endpoint: median tumor weight (est.), dose: 188.0 micrograms/kg/injection, schedule: Q07DX005 (ip), vehicle: saline) 34 % of control; (endpoint: median tumor weight (est.), dose: 375.0 micrograms/kg/injection, schedule: Q07DX005 (ip), vehicle: saline) 37 % of control; (endpoint: median tumor weight (est.), dose: 750.0 micrograms/kg/injection, schedule: Q07DX005 (ip), vehicle: saline) 32 % of control.
Consider `O=C(C/C(=N\C(=S)Nc1cc(C(F)(F)F)ccc1Cl)NO)N1CCCC1`, for which the T/C under setting [1] was 76 % of control; the T/C under setting [2] was 83 % of control and 90 % of control.
On to `[N-]=[N+]=C1N=CN=C1c1ncn[nH]1`, for which the T/C reads like this: (endpoint: median tumor weight (est.), dose: 3.12 mg/kg/injection, schedule: Q07DX005 (ip), vehicle: carboxymethylcellulose (CMC)) 91 % of control; (endpoint: median tumor weight (est.), dose: 6.25 mg/kg/injection, schedule: Q07DX005 (ip), vehicle: carboxymethylcellulose (CMC)) 95 % of control.
For the molecule `CN=C(N)N/N=C(\c1ccccc1)c1ccc(Br)cc1`, the T/C (endpoint: median tumor weight change, dose: 15.6 mg/kg/injection, schedule: Q01DX001 (ip), vehicle: saline with Tween-80) was 71 % of control; the T/C under setting [4] is 56 % of control; the T/C under setting [1] was 55 % of control.
`ClC(Cl)=C(Cl)Cl`: the T/C runs as follows: (endpoint: median tumor weight change, dose: 62.5 mg/kg/injection, schedule: Q01DX001 (ip), vehicle: other) 157 % of control; (endpoint: median tumor weight change, dose: 125.0 mg/kg/injection, schedule: Q01DX001 (ip), vehicle: other) 191 % of control.
Regarding `C[Si](C)(C)O/C=C1\CCCCC1=O`, the T/C reads like this: (endpoint: median tumor weight change, dose: 62.0 mg/kg/injection, schedule: Q01DX001 (ip), vehicle: saline with Tween-80) 70 % of control; under setting [1], 119 % of control; under setting [2], 54 % of control and 69 % of control; under setting [3], 93 % of control.
Consider `C/C(=N\N=C(/[Se])N1CC2CCC(CC2)C1)c1ccccn1`, for which the T/C was 86 % of control (endpoint: median tumor weight change, dose: 8.0 mg/kg/injection, schedule: Q01DX001 (ip), vehicle: Klucel (hydroxypropylcellulose) (HPC)); 114 % of control (endpoint: median tumor weight change, dose: 15.62 mg/kg/injection, schedule: Q01DX001 (ip), vehicle: Klucel (hydroxypropylcellulose) (HPC)); 109 % of control (endpoint: median tumor weight change, dose: 15.62 mg/kg/injection, schedule: Q01DX001 (ip), vehicle: saline with Tween-80); 27 % of control (endpoint: median tumor weight change, dose: 16.0 mg/kg/injection, schedule: Q01DX001 (ip), vehicle: Klucel (hydroxypropylcellulose) (HPC)); 55 % of control (endpoint: median tumor weight change, dose: 31.0 mg/kg/injection, schedule: Q01DX001 (ip), vehicle: Klucel (hydroxypropylcellulose) (HPC)); 87 % of control under setting [4]. The T/C (endpoint: median tumor weight change, dose: 62.0 mg/kg/injection, schedule: Q01DX001 (ip), vehicle: Klucel (hydroxypropylcellulose) (HPC)) is 18 % of control; the T/C (endpoint: median tumor weight change, dose: 62.5 mg/kg/injection, schedule: Q01DX001 (ip), vehicle: Klucel (hydroxypropylcellulose) (HPC)) was 122 % of control; the T/C under setting [1] was 65 % of control; the T/C (endpoint: median tumor weight change, dose: 125.0 mg/kg/injection, schedule: Q01DX001 (ip), vehicle: Klucel (hydroxypropylcellulose) (HPC)) is 111 % of control; the T/C under setting [2] was 59 % of control.
With `COC(=O)C12OCC34C(CC5C(C)=CC(=O)C(O)C5(C)C3C(O)C1O)OC(=O)C(OC(=O)CC(C)C)C24` (configuration not stated), the T/C was 107 % of control (endpoint: median tumor weight (est.), dose: 0.13 mg/kg/injection, schedule: Q07DX005 (ip), vehicle: saline + alcohol); 82 % of control (endpoint: median tumor weight (est.), dose: 0.5 mg/kg/injection, schedule: Q07DX005 (ip), vehicle: saline + alcohol); 64 % of control (endpoint: median tumor weight (est.), dose: 1.0 mg/kg/injection, schedule: Q07DX005 (ip), vehicle: saline + alcohol); 47 % of control (endpoint: median tumor weight (est.), dose: 2.0 mg/kg/injection, schedule: Q07DX005 (ip), vehicle: saline + alcohol).
Regarding `COc1ccc([I+]c2cccc(Cl)c2)cc1Cl`, the T/C runs as follows: (endpoint: median tumor weight (est.), dose: 3.12 mg/kg/injection, schedule: Q07DX005 (ip), vehicle: saline with Tween-80) 189 % of control; (endpoint: median tumor weight (est.), dose: 12.5 mg/kg/injection, schedule: Q07DX005 (ip), vehicle: saline with Tween-80) 34 % of control; (endpoint: median tumor weight (est.), dose: 50.0 mg/kg/injection, schedule: Q07DX005 (ip), vehicle: saline with Tween-80) 111 % of control.
As to `C[C@]12CC[C@H](O)CC1=CC[C@@H]1[C@@H]2CC[C@]2(C)C(=O)CC[C@@H]12`, the T/C under setting [1] is 115 % of control; the T/C under setting [3] was 104 % of control; the T/C (endpoint: median tumor weight change, dose: 500.0 mg/kg/injection, schedule: Q01DX001 (ip), vehicle: saline with Tween-80) was 90 % of control; the T/C (endpoint: median tumor weight change, dose: 1000.0 mg/kg/injection, schedule: Q01DX001 (ip), vehicle: saline with Tween-80) was 70 % of control.
As to `O=C1CN(CN2CCOCC2)C(=O)CN1CN1CCOCC1`, the T/C is, setting by setting: (endpoint: median tumor weight (est.), dose: 12.5 mg/kg/injection, schedule: Q07DX005 (ip), vehicle: saline) 170 % of control; (endpoint: median tumor weight (est.), dose: 50.0 mg/kg/injection, schedule: Q07DX005 (ip), vehicle: saline) 153 % of control; (endpoint: median tumor weight (est.), dose: 200.0 mg/kg/injection, schedule: Q07DX005 (ip), vehicle: saline) 100 % of control.
Turning to `CN=C(N)N/N=C(\C)c1ccc2c(c1)Cc1cc(/C(C)=N/NC(N)=NC)ccc1-2`, the T/C was 112 % of control (endpoint: median tumor weight change, dose: 7.5 mg/kg/injection, schedule: Q01DX001 (ip), vehicle: saline with Tween-80) and 102 % of control (endpoint: median tumor weight change, dose: 15.0 mg/kg/injection, schedule: Q01DX001 (ip), vehicle: saline with Tween-80).
Turning to `COc1cc(NCCCCCCCNC(C)C)c2nccc(C)c2c1`, the T/C under setting [5] is 70 % of control and the T/C under setting [6] was 72 % of control.
Regarding `C#CC[N+]12CN3CN(CN(C3)C1)C2`, the T/C by setting is: (endpoint: mean tumor weight, dose: 12.5 mg/kg/injection, schedule: Q07DX007 (ip), vehicle: saline) 48 % of control; (endpoint: mean tumor weight, dose: 25.0 mg/kg/injection, schedule: Q07DX007 (ip), vehicle: saline) 70 % of control; (endpoint: mean tumor weight, dose: 50.0 mg/kg/injection, schedule: Q07DX007 (ip), vehicle: saline) 81 % of control; (endpoint: mean tumor weight, dose: 100.0 mg/kg/injection, schedule: Q07DX007 (ip), vehicle: saline) 150 % of control; (endpoint: mean tumor weight, dose: 200.0 mg/kg/injection, schedule: Q07DX007 (ip), vehicle: saline) 97 % of control.
`CCCCCC#CC1OC12CCCCC2` (configuration not stated): the T/C was 37 % of control (endpoint: median tumor weight change, dose: 100.0 mg/kg/injection, schedule: Q01DX001 (ip), vehicle: saline with Tween-80); 106 % of control (endpoint: median tumor weight change, dose: 200.0 mg/kg/injection, schedule: Q01DX001 (ip), vehicle: saline with Tween-80); 51 % of control (endpoint: median tumor weight change, dose: 400.0 mg/kg/injection, schedule: Q01DX001 (ip), vehicle: saline with Tween-80); 100 % of control (endpoint: median tumor weight change, dose: 800.0 mg/kg/injection, schedule: Q01DX001 (ip), vehicle: saline with Tween-80).
`CC(C)CC(NC(=O)CF)C(=O)O` (configuration not stated): the T/C is 81 % of control (endpoint: median tumor weight (est.), dose: 0.62 mg/kg/injection, schedule: Q07DX005 (ip), vehicle: saline); 39 % of control (endpoint: median tumor weight (est.), dose: 2.5 mg/kg/injection, schedule: Q07DX005 (ip), vehicle: saline); 99 % of control (endpoint: median tumor weight (est.), dose: 5.0 mg/kg/injection, schedule: Q07DX005 (ip), vehicle: saline); 41 % of control (endpoint: median tumor weight (est.), dose: 10.0 mg/kg/injection, schedule: Q07DX005 (ip), vehicle: saline).
Take `Cc1c2c(c(O)c3c(O)cccc13)C(=O)C1(O)C(O)=C(C(=O)NCNc3ccc(C(N)=O)cn3)C(=O)C(N(C)C)C1C2` (configuration not stated): the T/C is, setting by setting: (endpoint: median tumor weight change, dose: 15.62 mg/kg/injection, schedule: Q01DX001 (ip), vehicle: saline) 82 % of control; under setting [5], 70 % of control; under setting [6], 43 % of control; (endpoint: median tumor weight change, dose: 125.0 mg/kg/injection, schedule: Q01DX001 (ip), vehicle: saline) 34 % of control.
With `CN=C(N)N/N=C(\C)c1ccc2oc3ccc(/C(C)=N/NC(N)=NC)cc3c2c1`, the T/C runs as follows: under setting [1], 87 % of control; under setting [2], 63 % of control.
`NC(=O)c1ccc[n+](Cc2c(Cl)cccc2Cl)c1`: the T/C reads like this: (endpoint: median tumor weight (est.), dose: 3.0 mg/kg/injection, schedule: Q07DX005 (ip), vehicle: saline) 171 % of control; (endpoint: median tumor weight (est.), dose: 6.0 mg/kg/injection, schedule: Q07DX005 (ip), vehicle: saline) 102 % of control; (endpoint: median tumor weight (est.), dose: 12.0 mg/kg/injection, schedule: Q07DX005 (ip), vehicle: saline) 211 % of control; (endpoint: median tumor weight (est.), dose: 48.0 mg/kg/injection, schedule: Q07DX005 (ip), vehicle: saline) 186 % of control.
